IC50, Activity and ED50 data for 22 compounds are collected here from ChEMBL document CHEMBL1132852, “Synthesis and structure-activity relationships of 4-oxo-1-phenyl-3,4,6,7-tetrahydro-[1,4]diazepino[6,7,1-hi]indoles: novel PDE4 inhibitors” (Bioorg Med Chem Lett, 2000).

Test [1] has as its target Phosphodiesterase, PDE1/PDE5 (Homo sapiens, UniProt O76074+P54750+Q01064+Q14123). As to the kind of experiment: Inhibitory activity against phosphodiesterase 1/5 (PDE1/5) extracted from guinea pig trachea smooth muscle cells by using radioligands [3H]-cAMP or [3H]cGMP. The following applies: target entry is the homologue from another species. It counts as tissue-based, Cavia porcellus.

In test [2] the target is Phosphodiesterase 4 (Homo sapiens, UniProt P27815+Q08499+Q07343+Q08493). As to the kind of experiment: Inhibition of phosphodiesterase 4 extracted from human U937 cells by using radioligands [3H]-cAMP or [3H]cGMP. To be noted: u-937. It counts as cell-free.
Another test addresses Phosphodiesterase 3 (Homo sapiens, UniProt Q14432+Q13370). As to the kind of experiment: Inhibition of Phosphodiesterase 3 extracted from dog aorta smooth muscle cells by using radioligands [3H]cAMP or [3H]-cGMP. The arrangement: species or system Canis lupus familiaris. To be noted: target entry is the homologue from another species.
Test [3] concerns Canis familiaris. Briefly: Emetic effect in dogs administered at 3 mg/kg intravenously (no effect). It counts as functional, organism-based. The arrangement: dose 3 mg/kg. To be noted: Canis lupus familiaris.
The next test deals with Rattus norvegicus. Briefly: Inhibition of antigen-induced lung eosinophilia in ovalbumin sensitized brown-norway rats after oral administration. It counts as functional.
Test [4] addresses Phosphodiesterase 4 (Rattus norvegicus, UniProt P14270+P14646+P14644+P54748). As to the kind of experiment: Displacement of [3H]rolipram from rat brain membrane suspensions. It counts as functional, tissue-based. A general note: Loss of bound radioactivity is the signal in a displacement assay; it reports binding, not function.
Test [5] has as its system Canis familiaris. As to the kind of experiment: Emetic effect in dogs administered at 3 mg/kg intravenously (No effect). On the set-up: dose 3 mg/kg. To be noted: Canis lupus familiaris. It counts as functional, organism-based.
Test [6] relates to Canis familiaris. Briefly: Emetic effect in dogs administered at 0.03 mg/kg intravenously (No effect). It counts as functional, organism-based. To be noted: Canis lupus familiaris. The arrangement: dose 0.03 mg/kg.

SMILES strings stand for the structures. Activity calls are given as the source filed them. No cut-off for these calls is given here.

A word on the IC50: it is the concentration at which inhibition is half-maximal. Read a low IC50 as greater potency. In the case of `Cc1cc2c3c(c1)C(c1ccccc1)=N[C@@H](NC(=O)c1cc(Cl)cc(Cl)c1)C(=O)N3CC2`, the IC50 in test [1] was above 100 µM; at Phosphodiesterase 4 [2] it was 1.15 µM; at Phosphodiesterase 3, 43.7 µM.
The corresponding values for `O=C(N[C@H]1N=C(c2ccccc2)c2cccc3c2N(CC3)C1=O)c1cc2ccccc2[nH]1` are 100 µM, 100 µM and above 100 µM.
The corresponding values for `O=C(N[C@@H]1N=C(c2ccccc2)c2cccc3c2N(CC3)C1=O)c1cc2ccccc2[nH]1` are above 100 µM, 4 µM and above 100 µM.
For `O=C(NC1N=C(c2ccccc2F)c2cc(Cl)cc3c2N(CC3)C1=O)c1cc2ccccc2[nH]1` (stereo not given), the half-maximal inhibitory concentration (IC50) at Phosphodiesterase 4 [2] and at Phosphodiesterase 3 was above 100 µM in each case.
One may read the ED50 as the dose at which the effect has come halfway, by size or by number of responders. With `Cc1cc2c3c(c1)C(c1ccccc1)=N[C@@H](NC(=O)c1ccncc1)C(=O)N3CC2`, the outcome with Canis familiaris [3] was inactive. Besides, the 50% inhibitory concentration (IC50) was above 100 µM in test [1], 1.14 µM on Phosphodiesterase 4 [2] and above 100 µM on Phosphodiesterase 3. In addition, the ED50 with Rattus norvegicus was found to be 6.9 mg/kg.
Turning to `COc1cc2c3c(c1)C(c1ccccc1)=N[C@@H](NC(=O)c1cc4ccccc4cn1)C(=O)N3CC2`, the IC50 in test [1] came out at 65.3 µM; at Phosphodiesterase 4 [2] it was 1.62 µM; on Phosphodiesterase 3, 82 µM.
The corresponding values for `COc1cc2c3c(c1)C(c1ccccc1)=N[C@@H](NC(=O)c1ccc(Cl)cc1)C(=O)N3CC2` are 40 µM, 1.8 µM and 62 µM.
With `COc1ccc(C(=O)N[C@@H]2N=C(c3ccccc3)c3cc(C)cc4c3N(CC4)C2=O)c(OC)c1`, the IC50 on Phosphodiesterase 4 [2] was 0.96 µM; at Phosphodiesterase 3 it was 7.85 µM.
Turning to `Cc1cc2c3c(c1)C(c1ccccc1)=N[C@@H](NC(=O)c1ccc(Cl)cc1)C(=O)N3CC2`, the IC50 in test [1] was above 100 µM; at Phosphodiesterase 4 [2], 1.25 µM; at Phosphodiesterase 3, 27 µM.
As for `Cc1cc2c3c(c1)C(c1ccccc1)=N[C@@H](NC(=O)c1nnc4cc(C)nn4c1C)C(=O)N3CC2`, the IC50 in test [1] was above 100 µM; at Phosphodiesterase 4 [2], 0.71 µM; at Phosphodiesterase 3, above 100 µM.
Regarding `O=C(N[C@@H]1N=C(c2ccccc2)c2cc(O)cc3c2N(CC3)C1=O)c1cc2ccccc2cn1`, the IC50 was above 100 µM in test [1], 0.41 µM at Phosphodiesterase 4 [2] and above 3.5 µM on Phosphodiesterase 3.
For the compound `O=C(N[C@@H]1N=C(c2ccccc2F)c2cccc3c2N(CC3)C1=O)c1cc2ccccc2[nH]1`, the IC50 at Phosphodiesterase 4 [2] and on Phosphodiesterase 3 was above 100 µM throughout.
Consider `O=C(NC1N=C(c2ccccc2)c2cccc3c2N(CCC3)C1=O)c1cc2ccccc2[nH]1` (stereo not given), for which the 50% inhibitory concentration (IC50) (in test [1]; at Phosphodiesterase 4 [2]; at Phosphodiesterase 3) was above 100 µM in each case.
Regarding `Nc1c(Cl)cc(C(=O)N[C@@H]2N=C(c3ccccc3)c3cccc4c3N(CC4)C2=O)cc1Cl`, the results for the 50% inhibitory concentration (IC50) (in test [1]; at Phosphodiesterase 4 [2]; on Phosphodiesterase 3) were above 100 µM, 0.63 µM and above 100 µM, respectively.
For `O=C(N[C@@H]1N=C(c2ccccc2)c2cccc3c2N(CC3)C1=O)c1cc2ccccc2cn1`, the IC50 is above 100 µM in test [1], 4.2 µM at Phosphodiesterase 4 [2] and above 100 µM at Phosphodiesterase 3.
For `Cc1cc2c3c(c1)C(c1ccccc1)=N[C@@H](NC(=O)c1cc4ccccc4cn1)C(=O)N3CC2`, the concentration for half-maximal inhibition (IC50) at Phosphodiesterase 4 [4] was above 3 µM; in test [1], above 100 µM; on Phosphodiesterase 4 [2] it was 2.6 µM; at Phosphodiesterase 3, above 100 µM. Moreover, in the test on Canis familiaris [5], the outcome was inactive. Further, the ED50 in the test on Rattus norvegicus turned out to be 10.7 mg/kg.
Turning to `COc1ccc(C2CNC(=O)C2)cc1OC1CCCC1` (stereo not given), the result in the test with Canis familiaris [6] was inactive.
As for `O=C(NC1N=C(c2ccccc2)c2ccccc2NC1=O)c1cc2ccccc2[nH]1` (stereo not given), the half-maximal inhibitory concentration (IC50) on Phosphodiesterase 4 [2] and at Phosphodiesterase 3 was above 100 µM in each case.
`Cc1cc2c3c(c1)C(c1ccccc1)=N[C@@H](NC(=O)c1ccc(Cl)cc1Cl)C(=O)N3CC2`: the IC50 in test [1] is above 100 µM; on Phosphodiesterase 4 [2], 0.76 µM; on Phosphodiesterase 3, 17.5 µM.
The corresponding values for `COc1ccccc1C(=O)N[C@@H]1N=C(c2ccccc2)c2cc(C)cc3c2N(CC3)C1=O` are 71.7 µM, 0.76 µM and above 100 µM.
The corresponding values for `Cc1cc2c3c(c1)C(c1ccccc1)=N[C@@H](NC(=O)c1cc(Cl)c(N)c(Cl)c1)C(=O)N3CC2` are above 100 µM, 0.33 µM and 17.5 µM.
The corresponding values for `COc1cc2c3c(c1)C(c1ccccc1)=N[C@@H](NC(=O)c1cc4ccccc4[nH]1)C(=O)N3CC2` are 100 µM, 0.65 µM and above 100 µM.
